Data taken from patent US11897851B2, “Heterocyclic GLP-1 agonists” (Gasherbrum Bio, Inc., priority 2021, dated 2024).

target: T1, GLP-1 Receptor (Homo sapiens, UniProt P43220); test: GLP-1R agonist cAMP stimulation assay (HEK293/GLP1R/CRE-LUC cells, Cisbio cAMP dynamic 2 kit); type: cell-based; conditions: HEK293/CRE-Luc cell line stably expressing the GLP-1 Receptor; 1000 cells/well; 30 min at 37° C.; 0.5 mM IBMX, 0.1% BSA; read-out: GLP1R cAMP Stimulation DR: EC50;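 note: compounds tested in half-log serial dilution, cAMP detected with cAMP-d2 and anti-cAMP cryptate antibody reagents after 1 h at room temperature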
T1 construct: host or cells: HEK293/GLP1R/CRE-LUC (HEK293/CRE-Luc stably expressing the GLP-1 receptor)
T1 sequence (P43220 24-463, species assumed): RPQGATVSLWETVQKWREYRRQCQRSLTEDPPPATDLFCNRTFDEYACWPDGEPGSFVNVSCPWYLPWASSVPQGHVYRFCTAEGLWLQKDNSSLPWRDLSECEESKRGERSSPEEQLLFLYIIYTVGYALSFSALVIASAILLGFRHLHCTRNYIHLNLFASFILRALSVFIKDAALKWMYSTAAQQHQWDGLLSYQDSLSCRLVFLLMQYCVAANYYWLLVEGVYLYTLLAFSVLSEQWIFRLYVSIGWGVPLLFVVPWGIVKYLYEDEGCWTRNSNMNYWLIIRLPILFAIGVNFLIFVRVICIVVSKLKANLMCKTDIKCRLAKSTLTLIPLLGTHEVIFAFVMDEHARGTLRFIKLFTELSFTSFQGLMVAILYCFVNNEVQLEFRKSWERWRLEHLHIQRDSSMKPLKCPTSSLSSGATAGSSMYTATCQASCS

EC50	SMILES
10 nM	CC1(c2ccc(Cl)cc2F)Oc2cccc(C3CCN(Cc4ncc(-c5nnc(C(F)(F)F)[nH]5)cc4CC4CCCS4(=O)=O)CC3)c2O1 (stereo not shown) [Compound 266, 2-{[2-({4-[2-(4-chloro-2-fluorophenyl)-2-methyl-2H-1,3-benzodioxol-4-yl]piperidin-1-yl}methyl)-5-[5-(trifluoromethyl)-4H-1,2,4-triazol-3-yl]pyridin-3-yl]methyl}-1λ^6-thiolane-1,1-dione]
4.7 nM	CC1(c2ccc(Cl)cc2F)Oc2cccc(C3CCN(Cc4ncc(-c5nnc(C(F)(F)F)[nH]5)cc4CCS(C)(=O)=O)CC3)c2O1 (stereo not shown) [Compound 267, 2-({4-[2-(4-chloro-2-fluorophenyl)-2-methyl-2H-1,3-benzodioxol-4-yl]piperidin-1-yl}methyl)-3-(2-methanesulfonylethyl)-5-[5-(trifluoromethyl)-4H-1,2,4-triazol-3-yl]pyridine]
7.7 nM	COCCc1cc(-c2noc(=O)[nH]2)cnc1CN1CCC(c2cccc3c2OC(C)(c2ccc(Cl)cc2F)O3)CC1 (stereo not shown) [Compound 268, 3-[6-({4-[2-(4-chloro-2-fluorophenyl)-2-methyl-2H-1,3-benzodioxol-4-yl]piperidin-1-yl}methyl)-5-(2-methoxyethyl)pyridin-3-yl]-4,5-dihydro-1,2,4-oxadiazol-5-one]
0.023 nM	C[C@]1(c2ccc(Cl)cn2)Oc2cccc(C3CCN(Cc4ncc(-c5nnc(C(F)(F)F)[nH]5)cc4CC4(C#N)CC4)CC3)c2O1 [Compound 277, 1-{[2-({4-[(2S)-2-(5-chloropyridin-2-yl)-2-methyl-2H-1,3-benzodioxol-4-yl]piperidin-1-yl}methyl)-5-[5-(trifluoromethyl)-4H-1,2,4-triazol-3-yl]pyridin-3-yl]methyl}cyclopropane-1-carbonitrile]
3.7 nM	C[C@]1(c2ccc(Cl)cc2F)Oc2cccc(C3CCN(Cc4ncc(-c5nnc(C(F)(F)F)[nH]5)cc4C4CCOC4)CC3)c2O1 (stereo partly drawn) [Compound 282, 2-({4-[(2S)-2-(4-chloro-2-fluorophenyl)-2-methyl-2H-1,3-benzodioxol-4-yl]piperidin-1-yl}methyl)-3-(oxolan-3-yl)-5-[5-(trifluoromethyl)-4H-1,2,4-triazol-3-yl]pyridine]
1.38 nM	Cc1cc(-c2nnc(C(F)(F)F)[nH]2)cnc1CN1CCC(c2cccc3c2O[C@@](C)(c2ccc(C#N)cc2F)O3)CC1 [Compound 286, 3-fluoro-4-[(2S)-2-methyl-4-[1-({3-methyl-5-[5-(trifluoromethyl)-4H-1,2,4-triazol-3-yl]pyridin-2-yl}methyl)piperidin-4-yl]-2H-1,3-benzodioxol-2-yl]benzonitrile]
0.87 nM	CCOCCc1cc(-c2nnc(C(F)(F)F)[nH]2)cnc1CN1CCC(c2cccc3c2O[C@@](C)(c2ccc(Cl)cc2F)O3)CC1 [Compound 287, 2-({4-[(2S)-2-(4-chloro-2-fluorophenyl)-2-methyl-2H-1,3-benzodioxol-4-yl]piperidin-1-yl}methyl)-3-(2-ethoxyethyl)-5-[5-(trifluoromethyl)-4H-1,2,4-triazol-3-yl]pyridine]
